Test results: patent US20030129222A1, “Liposomal imexon” (priority 2000, published 2003)
Where two headings read alike, the source gives them in different places. Each block holds one compound with its values, some of them ahead of it.

What was measured:
[1] = cited from earlier work
[2] = test system: L1210 leukemia, Mdr; assay: Cytotoxicity in tumor cell culture, MTT assay; type: cell-based, murine
From the text: (§1) Relative potencies of the N-substituted 2-cyanoaziridine-1-carboxamides in a panel of tumor cell cultures are compared in Table 3. This panel includes the following lines of human tumor cells: sensitive and imexon-resistant lines of multiple myeloma (Matsuoka et al., 1967); ovarian carcinoma resistant to standard drugs (Hamilton et al., 1984); melanoma with a slow growth fraction (Girard et al., 1973); breast carcinoma including sensitive, doxorubicin-resistant (P-glycoprotein-positive) (Taylor et al., 1991), and mitoxantrone-resistant (P-glycoprotein-negative) (Futscher et al., 1994) lines; sensitive and multidrug-resistant colon carcinoma (Noguchi et al., 1979; Dalton et al., 1988); and multidrug-resistant lung carcinoma (P-glycoprotein-negative) (Girard et al., 1973). It also has sensitive (Goldin et al., 1961) and multidrug-resistant (P-glycoprotein-positive) (Salmon and Hersh, 1994) murine L1210 leukemia cells.

[3] = test system: L1210 leukemia, Sens; assay: Cytotoxicity in tumor cell culture, MTT assay; type: cell-based, murine
From the text: as §1

[4] = substituent constant, from Hansch and Leo or calculated using Clog P software; cited from earlier work
[5] = test system: WiDr colon, Sens; assay: Cytotoxicity in tumor cell culture, SRB assay; type: cell-based
From the text: as §1

[6] = test system: WiDr colon, res; assay: Cytotoxicity in tumor cell culture, SRB assay; type: cell-based; settings: read-out: IC50 against human mouse tumors, WiDr colon res
From the text: as §1

[7] = test system: 8226 myeloma, Res (imexon-resistant); assay: Cytotoxicity in tumor cell culture, SRB assay; type: cell-based; settings: read-out: IC50 against human mouse tumors, 8226 myeloma Res
From the text: as §1

[8] = test system: MCF7 breast, mitox (mitoxantrone-resistant); assay: Cytotoxicity in tumor cell culture, SRB assay; type: cell-based, human
From the text: as §1

[9] = test system: OVCAR3 ovarian; assay: Cytotoxicity in tumor cell culture, SRB assay; type: cell-based, human
From the text: as §1

[10] = test system: A-549 lung; assay: Cytotoxicity in tumor cell culture, SRB assay; type: cell-based, human
From the text: as §1

[11] = test system: MCF7 breast, Dox (doxorubicin-resistant); assay: Cytotoxicity in tumor cell culture, SRB assay; type: cell-based, human
From the text: as §1

[12] = test system: MCF7 breast, Sens; assay: Cytotoxicity in tumor cell culture, SRB assay; type: cell-based, human
From the text: as §1

[13] = test system: 8226 myeloma, Sens (drug-sensitive); assay: Cytotoxicity in tumor cell culture, SRB assay; type: cell-based, human
From the text: as §1

[14] = test system: A375 melan; assay: Cytotoxicity in tumor cell culture, SRB assay; type: cell-based, human
From the text: as §1

[15] = test system: leukocytes; settings: in vivo; cited from earlier work
[16] = test system: PIE 2-3 sarcoma; settings: cited from earlier work; for activity against PIE 2-3 sarcoma: 13: over a 10-fold dose range
[17] = test system: fresh human tumor-colony-forming cells; assay: Human tumor cloning assay, eight tumor cell types together; type: cell-based
Procedure: (§2) Assays of antitumor agents against fresh human tumor-colony-forming cells provide results that predict better the responses obtained in treating cancer patients than those obtained with long established human cell lines (Salmon et al., 1981). For this reason, the N-phenyl derivative 13 was tested against a variety of fresh human tumors obtained at the Arizona Cancer Center using established methodology (Salmon and Hersh, 1994).

[18] = test system: Lung (cloned fresh human tumors); assay: Human tumor cloning assay, [3H]thymine uptake by tumor-colony-forming cells; type: cell-based; settings: No. tested 2
Procedure: as §2

[19] = test system: Melanoma (cloned fresh human tumors); assay: as above; type: cell-based; settings: No. tested 10
Procedure: as §2

[20] = test system: Sarcoma (cloned fresh human tumors); assay: as above; type: cell-based; settings: for no. sensitive: Sarcoma, No. tested 8
Procedure: as §2

[21] = test system: Myeloma (cloned fresh human tumors); assay: as above; type: cell-based; settings: No. tested 3
Procedure: as §2

[22] = test system: Ovary (cloned fresh human tumors); assay: as above; type: cell-based; settings: No. tested 12
Procedure: as §2

[23] = test system: Other Gynecologic (cloned fresh human tumors); assay: as above; type: cell-based; settings: No. tested 4
Procedure: as §2

[24] = test system: Stomach (cloned fresh human tumors); assay: as above; type: cell-based; settings: No. tested 1
Procedure: as §2

[25] = test system: Breast (cloned fresh human tumors); assay: as above; type: cell-based; settings: No. tested 4
Procedure: as §2

[26] = cited from earlier work; remark: listed apart in the source
[27] = Homo sapiens, read-out: Log(1/C) (converted)
[28] = Mus musculus, L1210, MTT assay, multidrug-resistant, read-out: IC50 against human mouse tumors, L1210 leukemia Mdr
[29] = Mus musculus, L1210, MTT assay, read-out: IC50 against human mouse tumors, L1210 leukemia Sens
[30] = Homo sapiens, WiDr; read-out: IC50 against human mouse tumors, WiDr colon Sens
[31] = Homo sapiens, WiDr, multidrug-resistant
[32] = Homo sapiens, line made resistant to imexon
[33] = Homo sapiens, MCF7, mitoxantrone-resistant, read-out: IC50 against human mouse tumors, MCF7 breast mitox
[34] = Homo sapiens, OVCAR-3; read-out: IC50 against human mouse tumors, OVCAR3 ovarian
[35] = Homo sapiens, A549; read-out: IC50 against human mouse tumors, A-549 lung
[36] = Homo sapiens, MCF7, doxorubicin-resistant, read-out: IC50 against human mouse tumors, MCF7 breast Dox
[37] = Homo sapiens, MCF7; read-out: IC50 against human mouse tumors, MCF7 breast Sens
[38] = Homo sapiens, against sensitive myeloma, values repeated from Table 3 (μM there), read-out: IC50
[39] = Homo sapiens, drug-sensitive line, read-out: IC50 against human mouse tumors, 8226 myeloma Sens
[40] = Homo sapiens, A-375; read-out: IC50 against human mouse tumors, A375 melan
[41] = 13 2.0 μM (second column of 13)

Compound: CS(=O)(=O)OCCCCOS(C)(=O)=O [Busulfan, 1,4-butanediol dimethanesulfonate]
adults obtaining hematologic remission ([1]; previously untreated chronic myelogenous leukemia): Approximately 90%

Compound: N#CC1CN1C(N)=O (stereo not shown) [Compound 1, 2-cyanoaziridine-1-carboxamide]
IC50 ([2]; Mus musculus, L1210, read-out: IC50 against human mouse tumors, L1210 leukemia Mdr): > 90 µM
IC50 ([3]; Mus musculus, L1210, read-out: IC50 against human mouse tumors, L1210 leukemia Sens): > 90 µM
π [4]: 0
IC50 ([5]; Homo sapiens, WiDr, read-out: IC50 against human mouse tumors, WiDr colon Sens): > 280 µM
IC50 ([6]; Homo sapiens, WiDr): > 280 µM
IC50 ([7]; Homo sapiens): 432 µM
IC50 ([8]; Homo sapiens, MCF7, read-out: IC50 against human mouse tumors, MCF7 breast mitox): > 54 µM
IC50 ([9]; Homo sapiens, OVCAR-3, read-out: IC50 against human mouse tumors, OVCAR3 ovarian): > 90 µM
IC50 ([10]; Homo sapiens, A549, read-out: IC50 against human mouse tumors, A-549 lung): > 280 µM
IC50 ([11]; Homo sapiens, MCF7, read-out: IC50 against human mouse tumors, MCF7 breast Dox): > 54 µM
IC50 ([12]; Homo sapiens, MCF7, read-out: IC50 against human mouse tumors, MCF7 breast Sens): > 54 µM
IC50 ([13]; Homo sapiens): 288 µM
IC50 ([13]; Homo sapiens, read-out: IC50 against human mouse tumors, 8226 myeloma Sens): 288 µM
IC50 [13, 27]: 288 µM
IC50 ([14]; Homo sapiens, A-375, read-out: IC50 against human mouse tumors, A375 melan): > 90 µM
effect on number of leukocytes [15]: increased the number of leukocytes
activity against PIE 2-3 sarcoma [16]: active
toxicity ([16]; rat, in vivo): low toxicity

melting point: 98 to 100 °C
Compound: CNC(=O)N1CC1C#N (stereo not shown) [Compound 6, 2-Cyanoaziridine-1-(N-methyl) carboxainide]
IC50 [2, 28]: 21 µM
IC50 [3, 29]: 8.7 µM
π [4]: 0.50
IC50 [5, 30]: 21 µM
IC50 [6, 31]: 23 µM
IC50 [7, 32]: 26 µM
IC50 [8, 33]: 18 µM
IC50 [9, 34]: 14 µM
IC50 [10, 35]: 22 µM
IC50 [11, 36]: 17 µM
IC50 [12, 37]: 27 µM
IC50 ([13]; Homo sapiens, against sensitive myeloma, read-out: Log(1/C) (converted)): 25.7 µM
IC50 [13, 38]: 26 µM
IC50 [13, 39]: 26 µM
IC50 [14, 40]: 17 µM

Compound: N#CC1CN1C(=O)Nc1ccccc1 (stereo not shown) [Compound 13, 2-Cyanoaziridine-1-(N-phenyl)carboxamide]
IC50 [2, 28]: 11 µM
IC50 [3, 29]: 1.2 µM
π [4]: 2.00
IC50 [5, 30]: 5 µM
IC50 [6, 31]: 12 µM
IC50 [7, 32]: 8 µM
IC50 [8, 33]: 4.3 µM
IC50 [9, 34]: 6.8 µM
IC50 [10, 35]: 9 µM
IC50 [11, 36]: 2.6 µM
IC50 [12, 37]: 2.9 µM
IC50 [13, 27]: 5.37 µM
IC50 [13, 38]: 5.3 µM
IC50 [13, 39]: 5.3 µM
IC50 [14, 40]: 11 µM
melting point: 88 to 90 °C
effectiveness compared with imexon ([17]; 13 at 0.2 μM versus imexon at 1.0 μM): about as effective as imexon
activity and potency compared with imexon in fresh human tumor cells ([17]; listed as N-phenyl derivative): more potent and equally effective to imexon
no. sensitive ([18]; 13 0.2 μM): 0
no. sensitive [18, 41]: 1
no. sensitive ([18]; 13 2.0 μM (third column of 13)): 2
no. sensitive ([19]; 13 0.2 μM): 3/5
no. sensitive [19, 41]: 8
no. sensitive ([19]; 13 2.0 μM (third column of 13)): 10
activity against the sarcoma cells compared with imexon [20]: superior
no. sensitive ([20]; 13 0.2 μM): 2/2
no. sensitive [20, 41]: 4
no. sensitive ([20]; 13 2.0 μM (third column of 13)): 5
no. sensitive ([21]; 13 0.2 μM): 2/2
no. sensitive [21, 41]: 2/2
no. sensitive ([21]; 13 2.0 μM (third column of 13)): 2/2
no. sensitive ([22]; 13 0.2 μM): 3/10
no. sensitive [22, 41]: 10/11
no. sensitive ([22]; 13 2.0 μM (third column of 13)): 10
no. sensitive ([23]; 13 0.2 μM): 0
no. sensitive [23, 41]: 2
no. sensitive ([23]; 13 2.0 μM (third column of 13)): 3
no. sensitive ([24]; 13 0.2 μM): 1
no. sensitive [24, 41]: 1
no. sensitive ([24]; 13 2.0 μM (third column of 13)): 1
no. sensitive ([25]; 13 0.2 μM): 2
no. sensitive [25, 41]: 2
no. sensitive ([25]; 13 2.0 μM (third column of 13)): 3
activity against PIE 2-3 sarcoma [16]: active

Compound: N#CC1CN1C(=O)Nc1cccnc1 (stereo not shown) [Compound 24, 2-Cyanoaziridine-1-[N-(3-pyridyl)]carboxamide]
IC50 ([2]; MTT assay, multidrug-resistant, read-out: IC50 against human mouse tumors, L1210 leukemia Mdr): 16 µM
IC50 ([3]; MTT assay, read-out: IC50 against human mouse tumors, L1210 leukemia Sens): 11 µM
π [4]: 0.32
IC50 ([5]; read-out: IC50 against human mouse tumors, WiDr colon Sens): 6 µM
IC50 ([6]; multidrug-resistant): 18 µM
IC50 ([7]; line made resistant to imexon): 15 µM
IC50 ([8]; mitoxantrone-resistant, read-out: IC50 against human mouse tumors, MCF7 breast mitox): 5.4 µM
IC50 ([9]; read-out: IC50 against human mouse tumors, OVCAR3 ovarian): 10 µM
IC50 ([10]; read-out: IC50 against human mouse tumors, A-549 lung): 16 µM
IC50 ([11]; doxorubicin-resistant, read-out: IC50 against human mouse tumors, MCF7 breast Dox): 6.6 µM
IC50 ([12]; read-out: IC50 against human mouse tumors, MCF7 breast Sens): 4.2 µM
Log(1/C) ([13]; against sensitive myeloma): 4.95
IC50 ([13]; against sensitive myeloma, values repeated from Table 3 (μM there), read-out: IC50): 12 µM
IC50 ([13]; drug-sensitive line, read-out: IC50 against human mouse tumors, 8226 myeloma Sens): 12 µM
IC50 ([14]; read-out: IC50 against human mouse tumors, A375 melan): 12 µM

Compound: N[C@@H](Cc1ccc(N(CCCl)CCCl)cc1)C(=O)O [Melphalan, 4-[bis(2-chloroethyl)amino]-L-phenylalanine]
patients showing a favorable response ([1]; multiple myeloma, oral administration): one third to one half

Compound: CO[C@@]12[C@H](COC(N)=O)C3=C(C(=O)C(C)=C(N)C3=O)N1C[C@@H]1N[C@@H]12 [Mitomycin]
maximal serum concentration ([26]; 10 mg I.V.): 0.52 mg/mL
maximal serum concentration ([26]; 20 mg I.V.): 1.7 mg/mL
maximal serum concentration ([26]; 30 mg I.V.): 2.4 mg/mL
time required to reduce the serum concentration by about 50% ([26]; 30 mg bolus injection): 17 min
dose excreted unchanged in the urine ([26]; in vivo): Approximately 10%
